Experimental data published in PubChem BioAssay AID2060898 (Molecular Pharmacology Branch, DTP, NCI, 2025).
Each block holds one compound with its values, some of them ahead of it.

System: 616215-338-R-J1-PDC complex spheroid viability
Test: Anticancer human tumor 616215-338-R-J1-PDC patient-derived colon adenocarcinoma cell line growth inhibition [RAS]
Details: for IC50: curve of first compound; for viability, T/C: stronger effect = lower value
Excerpt: RAS pathway inhibitors in Combinations in Complex Spheroids
A high-throughput screen of multi-cell type tumor spheroids was designed to identify active combinations of RAS pathway inhibitors and targeted small molecules. Complex spheroids include a stromal component modeled by human endothelial cells (HUVEC) and fibroblasts modeled by human mesenchymal stem cells (MSCs). The concentration ranges selected for each drug and investigational agent were based upon clinically achievable concentrations if the clinical Cmax of the agent was known.
Compounds. The drugs and investigational agents: abemaciclib (NSC768073), cobimetinib (NSC768068), divarasib (GDC6063, NSC841802), docetaxel (NSC628503), GDC-1971 (RLY-1971, NSC841576), gemcitabine (NSC613327), inavolisib (NSC800729), ipatasertib (NSC767898), KB-0742 (NSC834161), MRTX-1133 (NSC836407), osimertinib (NSC779217), RMC-4630 (NSC839698), RMC-6236 (NSC851965), RMC-6291 (NSC852671), Ro-3306 (NSC812927), sapanisertib (NSC764658), SN-38 (NSC673596), staurosporine (NSC755774), SY5609 (NSC837396), and tovorafenib (DAY101, NSC766906), were obtained from the National Cancer Institute (NCI) Developmental Therapeutics Program Chemical Repository. The FDA-approved anticancer drug set is available from the NCI Developmental Therapeutics Program. […] The stock solutions were prepared in dimethyl sulfoxide (DMSO, Sigma-Aldrich, St. Louis, MO, cat. D2650) at 800-fold the tested concentration and stored at -70 degrees C prior to their use. All drugs and investigational agents were tested over a range starting from a high concentration at or near the clinical Cmax and decreasing in half-log increments. If the clinical Cmax for an agent had not been determined, the highest concentration tested was 10 microM.
Cell Culture. All cells were maintained in an incubator at 37 degrees C and 5% CO2 with 95% humidity. The PDC lines were cultured according to standard operating procedures established by the NCI PDMR. All PDCs were thawed and cultured in Matrigel-coated flasks prepared with a working solution of 1X Ham's F-12 nutrient mix, without supplementation (Invitrogen, Waltham, MA, cat. 11765054), 100 U/mL penicillin-streptomycin (Invitrogen, cat. 15140122), and 2.5% Matrigel (Corning Inc., Corning, NY, cat. 354248) for the first three passages. The 362531-283-R-J2-PDC and 782815-120-R-J1-PDC lines were cultured in 6C/Colon 1B media, which includes advanced DMEM/F-12 (Thermo Fisher Scientific, cat. 12634028), 10 mM HEPES (Thermo Fisher Scientific, cat. 15630080), 1X GlutaMAX supplement (Thermo Fisher Scientific, cat. 35050061), 0.1 mg/mL primocin (InvivoGen, San Diego, CA, cat. ant-pm-2), 10% defined fetal bovine serum, heat inactivated (HyClone Laboratories Inc., Logan, UT, cat. SH30070.03HI), 50% L-WRN conditioned media (ATCC, cat. CRL-3276), 1.25 mM N-Acetyl-L-cysteine (Sigma-Aldrich, cat. A9165), 10 mM nicotinamide (Sigma-Aldrich, cat. N0636), 1X B-27 supplement (Thermo Fisher Scientific, cat. 17504044), 1X N-2 supplement (Thermo Fisher Scientific, cat. 17502048), 50 ng/mL human EGF (Thermo Fisher Scientific, cat. PHG0311), and 10 microM Y-27632 dihydrochloride (Tocris Bioscience, cat. 1254). The K12877-001-R-J1-PDC line was cultured in 6I media, which includes all 6C/Colon 1B media plus 10 ng/mL human FGF-10 (PeproTech, cat. 100-26), 1 ng/mL human FGF-2 (PeproTech, cat. 100-18B), 1 µM prostaglandin E2 (Tocris Bioscience, cat. 2296), […] hydrocortisone (Sigma-Aldrich, cat. H4001), and […] bovine insulin (Sigma-Aldrich, cat. I6634). The K86415-001-R-J1-PDC line was cultured in 6D media, which includes all 6C/Colon 1B media components minus the L-WRN conditioned media. The 485176-168-R4-J1-PDC was cultured in PANC media, which includes all 6C/Colon 1B media plus 100 ng/mL human FGF-10 (PeproTech, cat. 100-26), 500 nM SB-431542 (Selleckchem, cat. S1067), and 10 nM gastrin (Tocris Bioscience, cat. 3006). […]

[1] = second compound 0.0316 µM, first compound 0.0316 µM
[2] = second compound 0.0316 µM, first compound 0.1 µM
[3] = second compound 0.0316 µM, first compound 0.316 µM
[4] = second compound 0.0316 µM, first compound 1 µM
[5] = second compound 0.0316 µM, first compound 3.16 µM
[6] = second compound 0.0316 µM, first compound 10 µM
[7] = second compound 0.1 µM, first compound 0.0316 µM
[8] = second compound 0.1 µM, first compound 0.1 µM
[9] = second compound 0.1 µM, first compound 0.316 µM
[10] = second compound 0.1 µM, first compound 1 µM
[11] = second compound 0.1 µM, first compound 3.16 µM
[12] = second compound 0.1 µM, first compound 10 µM
[13] = second compound 0.316 µM, first compound 0.0316 µM
[14] = second compound 0.316 µM, first compound 0.1 µM
[15] = second compound 0.316 µM, first compound 0.316 µM
[16] = second compound 0.316 µM, first compound 1 µM
[17] = second compound 0.316 µM, first compound 3.16 µM
[18] = second compound 0.316 µM, first compound 10 µM
[19] = second compound 1 µM, first compound 0.0316 µM
[20] = second compound 1 µM, first compound 0.1 µM
[21] = second compound 1 µM, first compound 0.316 µM
[22] = second compound 1 µM, first compound 1 µM
[23] = second compound 1 µM, first compound 3.16 µM
[24] = second compound 1 µM, first compound 10 µM
[25] = second compound 3.16 µM, first compound 0.0316 µM
[26] = second compound 3.16 µM, first compound 0.1 µM
[27] = second compound 3.16 µM, first compound 0.316 µM
[28] = second compound 3.16 µM, first compound 1 µM
[29] = second compound 3.16 µM, first compound 3.16 µM
[30] = second compound 3.16 µM, first compound 10 µM
[31] = second compound 10 µM, first compound 0.0316 µM
[32] = second compound 10 µM, first compound 0.1 µM
[33] = second compound 10 µM, first compound 0.316 µM
[34] = second compound 10 µM, first compound 1 µM
[35] = second compound 10 µM, first compound 3.16 µM
[36] = second compound 10 µM, first compound 10 µM
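Also: spheroids exposed to agents for seven days before viability readout.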
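For viability, T/C in this document: 100% = DMSO vehicle control viability.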

- IC50 (second compound 0.0316 µM): 8.8 µM
- IC50 (second compound 0.1 µM): 8.47 µM
- IC50 (second compound 0.316 µM): 7.91 µM
- IC50 (second compound 1 µM): 7.71 µM
- IC50 (second compound 3.16 µM): 4.6 µM
- IC50 (second compound 10 µM): 2.13 µM
Structure (SMILES): CC(C)NCC(C(=O)N1CCN(c2ncnc3c2C(C)CC3O)CC1)c1ccc(Cl)cc1 (stereo unspecified) + C#Cc1c(F)ccc2cc(O)cc(-c3ncc4c(N5CC6CCC(C5)N6)nc(OCC56CCCN5CC(F)C6)nc4c3F)c12
- viability, T/C [1]: 107%
- viability, T/C [2]: 103%
- viability, T/C [3]: 108%
- viability, T/C [4]: 111%
- viability, T/C [5]: 99.5%
- viability, T/C [6]: 43.8%
- viability, T/C [7]: 104%
- viability, T/C [8]: 109%
- viability, T/C [9]: 105%
- viability, T/C [10]: 111%
- viability, T/C [11]: 91.8%
- viability, T/C [12]: 43%
- viability, T/C [13]: 113%
- viability, T/C [14]: 110%
- viability, T/C [15]: 110%
- viability, T/C [16]: 108%
- viability, T/C [17]: 81.5%
- viability, T/C [18]: 42%
- viability, T/C [19]: 114%
- viability, T/C [20]: 121%
- viability, T/C [21]: 115%
- viability, T/C [22]: 103%
- viability, T/C [23]: 75.7%
- viability, T/C [24]: 42.5%
- viability, T/C [25]: 107%
- viability, T/C [26]: 101%
- viability, T/C [27]: 94.5%
- viability, T/C [28]: 97.2%
- viability, T/C [29]: 60.3%
- viability, T/C [30]: 28.4%
- viability, T/C [31]: 81.2%
- viability, T/C [32]: 82.2%
- viability, T/C [33]: 89.2%
- viability, T/C [34]: 74.1%
- viability, T/C [35]: 37.2%
- viability, T/C [36]: 18.5%

- IC50 (second compound 0.0316 µM): > 0.1 µM
- IC50 (second compound 0.1 µM): > 0.1 µM
- IC50 (second compound 0.316 µM): > 0.1 µM
- IC50 (second compound 1 µM): > 0.1 µM
- IC50 (second compound 3.16 µM): 0.0599 µM
- IC50 (second compound 10 µM): 0.0139 µM
Structure (SMILES): CC(C)n1nc(-c2ccc3oc(N)nc3c2)c2c(N)ncnc21 + C#Cc1c(F)ccc2cc(O)cc(-c3ncc4c(N5CC6CCC(C5)N6)nc(OCC56CCCN5CC(F)C6)nc4c3F)c12
- viability, T/C (second compound 0.0316 µM, first compound 0.000316 µM): 113%
- viability, T/C (second compound 0.0316 µM, first compound 0.001 µM): 119%
- viability, T/C (second compound 0.0316 µM, first compound 0.00316 µM): 112%
- viability, T/C (second compound 0.0316 µM, first compound 0.01 µM): 114%
- viability, T/C [1]: 104%
- viability, T/C [2]: 57.1%
- viability, T/C (second compound 0.1 µM, first compound 0.000316 µM): 116%
- viability, T/C (second compound 0.1 µM, first compound 0.001 µM): 107%
- viability, T/C (second compound 0.1 µM, first compound 0.00316 µM): 113%
- viability, T/C (second compound 0.1 µM, first compound 0.01 µM): 106%
- viability, T/C [7]: 107%
- viability, T/C [8]: 58%
- viability, T/C (second compound 0.316 µM, first compound 0.000316 µM): 116%
- viability, T/C (second compound 0.316 µM, first compound 0.001 µM): 111%
- viability, T/C (second compound 0.316 µM, first compound 0.00316 µM): 112%
- viability, T/C (second compound 0.316 µM, first compound 0.01 µM): 112%
- viability, T/C [13]: 99.9%
- viability, T/C [14]: 54.9%
- viability, T/C (second compound 1 µM, first compound 0.000316 µM): 118%
- viability, T/C (second compound 1 µM, first compound 0.001 µM): 111%
- viability, T/C (second compound 1 µM, first compound 0.00316 µM): 121%
- viability, T/C (second compound 1 µM, first compound 0.01 µM): 116%
- viability, T/C [19]: 111%
- viability, T/C [20]: 54.2%
- viability, T/C (second compound 3.16 µM, first compound 0.000316 µM): 86.8%
- viability, T/C (second compound 3.16 µM, first compound 0.001 µM): 105%
- viability, T/C (second compound 3.16 µM, first compound 0.00316 µM): 98.3%
- viability, T/C (second compound 3.16 µM, first compound 0.01 µM): 77.9%
- viability, T/C [25]: 67.9%
- viability, T/C [26]: 37.2%
- viability, T/C (second compound 10 µM, first compound 0.000316 µM): 76.8%
- viability, T/C (second compound 10 µM, first compound 0.001 µM): 64.2%
- viability, T/C (second compound 10 µM, first compound 0.00316 µM): 68.2%
- viability, T/C (second compound 10 µM, first compound 0.01 µM): 49.2%
- viability, T/C [31]: 44.2%
- viability, T/C [32]: 27.9%

- IC50 (second compound 0.0316 µM): > 10 µM
- IC50 (second compound 0.1 µM): > 10 µM
- IC50 (second compound 0.316 µM): > 10 µM
- IC50 (second compound 1 µM): > 10 µM
- IC50 (second compound 3.16 µM): > 10 µM
- IC50 (second compound 10 µM): < 0.0316 µM
Structure (SMILES): CC(Nc1ccc2c(c1)OCCn1cc(N3C(=O)OCC3C(F)F)nc1-2)C(N)=O (stereo unspecified) + C#Cc1c(F)ccc2cc(O)cc(-c3ncc4c(N5CC6CCC(C5)N6)nc(OCC56CCCN5CC(F)C6)nc4c3F)c12
- viability, T/C [1]: 98.9%
- viability, T/C [2]: 132%
- viability, T/C [3]: 104%
- viability, T/C [4]: 104%
- viability, T/C [5]: 101%
- viability, T/C [6]: 73%
- viability, T/C [7]: 104%
- viability, T/C [8]: 115%
- viability, T/C [9]: 113%
- viability, T/C [10]: 106%
- viability, T/C [11]: 98.5%
- viability, T/C [12]: 78.2%
- viability, T/C [13]: 102%
- viability, T/C [14]: 122%
- viability, T/C [15]: 111%
- viability, T/C [16]: 108%
- viability, T/C [17]: 101%
- viability, T/C [18]: 76.8%
- viability, T/C [19]: 116%
- viability, T/C [20]: 115%
- viability, T/C [21]: 106%
- viability, T/C [22]: 100%
- viability, T/C [23]: 98.1%
- viability, T/C [24]: 73.8%
- viability, T/C [25]: 73.4%
- viability, T/C [26]: 84.4%
- viability, T/C [27]: 81.3%
- viability, T/C [28]: 85.8%
- viability, T/C [29]: 91.5%
- viability, T/C [30]: 65.6%
- viability, T/C [31]: 50.7%
- viability, T/C [32]: 38.7%
- viability, T/C [33]: 34%
- viability, T/C [34]: 43.4%
- viability, T/C [35]: 31.6%
- viability, T/C [36]: 34.3%
